Key:
Rats = test: Partial sciatic nerve ligation model (rats, ip); format: in vivo; conditions: dose 12 (mg), at 1 h, p < 0.05
Mice [1] = conditions: rotorod, Ref 30, 16, 32; cited from earlier work
Rat [2] = conditions: Ref 16, 32; cited from earlier work
Rat [3] = conditions: Ref 16, 32; cited from earlier work; remark: listed apart in the source
Mice [4] = test: Maximal electroshock seizure (MES) test, mice (ip); conditions: ip;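 also: male albino CF No. 1 mice dosed ip, MES stimulus 50 mA at 60 Hz lasting 0.2 s, efficacy endpoint is loss of hind leg tonic extension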
Method: (§1) The maximal electroconvulsive shock (MES) test is regarded as a standard screen for anticonvulsant activity in terms of inhibition of seizure spread in generalized tonic-clonic seizures.
(§2) Groups of at least 8 male albino CF No. 1 mice or male albino Sprague-Dawley rats are treated with 10 mL/kg i.p. or 4 mL/kg p.o. of the test compound solution, respectively. The electrical stimulus in the MES test is 50 mA at 60 Hz for mice and 150 mA at 60 Hz for rats, both delivered for 0.2 sec. Abolition of the hind leg tonic extensor component of the seizure is used as the endpoint.

[5] = Neurological toxicity, rotorod test, mice (ip); format: in vivo; conditions: male, CF No 1, mouse, in vivo, read-out: Mice (ip) Tox, TD50
Method: Tests are conducted in groups of at least 8 mice or rats to determine the intrinsic neurotoxicity (neuromuscular impairment) after administration of the test compound by the route of administration to be used in the pharmacology studies. Neurotoxicity is determined in male CF No 1 mice by the rotarod procedure. Inability of the mouse to maintain its equilibrium in 3 trials during 1 min on this rotating rod (6 rpm) is used as an indication of such impairment. In Sprague-Dawley rats, minimal motor impairment (MMI) is determined by overt evidence of ataxia, abnormal gait, and stance.

Mice [6] = conditions: Ref 30, 16, 32; cited from earlier work
Rat [7] = test: Maximal electroshock seizure (MES) test, rat (po); format: in vivo; conditions: PI=TD50/ED50
Method: as §1, §2

Mice [8] = test: Formalin test (mice, ip); format: in vivo; conditions: mice, ip; dose 15 (mg)
Method: Compounds of the present invention were active in treating pain in a formalin test carried out in accordance with standard techniques, as described in S. Hunskaar et al., J. Neurosci. Methods 14: 69-76 (1985). Briefly, 0.5% formalin is injected into the mouse hind paw to elicit a bi-phasic licking response, where the first acute phase is thought to correspond to the direct stimulation of peripheral fibers and the second (inflammatory) phase is caused by the release of inflammatory mediators.
Spinal/supraspinal plasticity of nociception is considered as a molecular basis for neuropathic pain particularly during the second (late) phase of the test (Dubuisson & Dennis, 1977; Coderre et al., 1990; Coderre & Melzack, 1992), during which most clinically used drugs against neuropathic pain are active.

## COC[C@@H](NC(C)=O)C(=O)NCc1ccc(OCc2cccc(F)c2)cc1 [(R)-3, (R)-2-Acetamido-N-(4-(3-fluorobenzyloxy)benzyl)-3-methoxypropanamide]
Rats
  Partial Sciatic Nerve Ligation Assay: attenuation of mechanical allodynia: 11.2 fold attentaution of mechanical
Mice [1]
  Mice (ip) Tox, TD50: 27 [0.25] mg/kg
Rat [2]
  Rat (po) Tox, TD50: >500 mg/kg
Rat [3]
  Rat (po) MES, ED50: 3.9 [2.0] mg/kg
Mice [4]
  Mice (ip) MES, ED50: 13 [0.25]
Mice [4]; PI=TD50/ED50
  Mice (ip) PI: ~2
[5]
  TD50: 26 mg/kg
Mice [6]
  Mice (ip) Mes, ED50: 4.5 [0.5] mg/kg
Rat [7]
  Rat (po) PI: >36
Mice [8]
  Formalin Assay Acute (%): 35%
  Formalin Assay Inflam. (%): 44%
